# Experimental data reported in publication PMC10005185, “Structure-guided engineering of a receptor-agonist pair for inducible activation of the ABA adaptive response to drought” (Science Advances, 2023).
# Tests used:
# HAB1 with PYR1 = target: T1, HAB1 with PYR1 (Arabidopsis thaliana, UniProt O49686); test: PP2C inhibition assay, HAB1 with PYR1; assay type: biochemical; conditions: 1 μM iSB09, PYR1
# T1 construct: His; made in house
# Description: His-tagged receptors and phosphatases were purified using nickel–nitrilotriacetic acid (Ni-NTA) affinity chromatography. Protein integrity was analyzed by SDS–polyacrylamide gel electrophoresis, followed by InstantBlue staining. Phosphatase activity was measured using p-Nitrophenyl Phosphate (pNPP) (25 mM) as substrate, 10 mM MnCl2,1 μM PP2C, and 2 μM of the indicated receptors. Proteins were incubated with the ligands for 10 min at room temperature. pNPP was then added to start the reactions, and the absorbance at 405 nm was monitored for 20 min in a ViktorX5 plate reader. Assays were repeated twice. For dose-response experiments, IC50 values were obtained with GraphPad Prism 9 using a nonlinear regression curve fit. Each ligand concentration was tested in triplicate. Phosphatase activity of ABI1 was measured using RRA(phosphoT)VA peptide as a substrate, as described ([27]).
# [1] = system: Arabidopsis thaliana seedlings (WT Col-0, overexpressing lines, receptor mutants); test: Seedling establishment assay; assay type: in vivo
# Description: Seedling establishment was scored as the percentage of seeds that developed green expanded cotyledons and the first pair of true leaves at 5 or 7 days. Seedling establishment assays in the presence of ABA receptor agonists were performed in 24-well plates, where approximately 25 to 35 seeds per well were sown. Each well contained a different treatment. The experiment was repeated at least twice.
# [2] = system: Nicotiana benthamiana WT plants; test: IR thermography of leaf temperature, N. benthamiana; assay type: in vivo; conditions: nontransformed leaves, 24 hours after spraying, 50 μM ABA or 100 μM iSB07 or iSB09, compared to mock
# Description: IR images were taken using a FLIR […] thermocamera 1 day after the treatment (for N. benthamiana) or 2 and 5 days (for S. lycopersicum). Quantification was performed using the FLIR tools software on fully expanded leaves by analyzing 10 sections per leaf. At least six plants per genotype and treatment were analyzed in each experiment. Experiments were repeated twice. The average plant temperature ± SD of all the plants for each treatment and genotype was calculated and used to report the increase in temperature produced by each treatment. Statistical comparisons among genotypes were performed by either pairwise t tests or one-way ANOVA.
# tomato plants = test: IR thermography of leaf temperature, tomato; assay type: in vivo, Solanum lycopersicum; conditions: 10 μM
# Description: For experiments using N. benthamiana or S. lycopersium, 1-month-old plants grown under long-day conditions (16-hour light/8-hour dark) were sprayed with 10 mM MES (pH 5.7) + 0.02% Silwet L77 supplemented with either 50 μM ABA, or the indicated concentration of iSB07/iSB09 or 0.1% DMSO as a mock-treated control. IR images were taken using a FLIR E95 thermocamera 1 day after the treatment (for N. benthamiana) or 2 and 5 days (for S. lycopersicum). Quantification was performed using the FLIR tools software on fully expanded leaves by analyzing 10 sections per leaf. At least six plants per genotype and treatment were analyzed in each experiment. Experiments were repeated twice. The average plant temperature ± SD of all the plants for each treatment and genotype was calculated and used to report the increase in temperature produced by each treatment. Statistical comparisons among genotypes were performed by either pairwise t tests or one-way ANOVA.
# Fig. S6. QB lacks bioactivity in tomato whereas iSB09 is
# (A) Quantification of the leaf temperature difference at 2 and 5 days after spraying tomato plants with 0.1 % DMSO
# (mock- treated control), 10 µM iSB09 or 10 µM QB.
# Asterisk indicates p<0.001 (Student’s t test). Values show individual points and average ± SD (n=4 replicates for mock and chemical treatments). (B) IR-images of representative tomato plants at 2 days after being treated with 0.1 % DMSO
# Photographs were taken with white light (leaf panel) or infrared thermography (right panel) using the camera FLIR
# HAB1 phosphatase activity in presence of PYL4. IC50 values for iSB09 or QB-dependent inhibition of HAB1 by AtPYL4. Values (average of duplicates) show PP2C activity after incubation with the indicated concentration of ligand and AtPYL4 at 1:2 ratio (1 µM phosphatase:2 µM receptor).
# (1 picture or pasted object on this page, not shown here)
# ABA-responsive markers = test: RNA sequencing of ABA-responsive markers; assay type: in vivo, Arabidopsis thaliana; conditions: 5 μM iSB09, 3 hours
# Description: Total RNA was extracted as indicated above. The quality of the samples was verified using Agilent 2100 Bioanalyzer. First-strand cDNA was prepared by an EasyScript One-Step gDNA Removal and cDNA Synthesis SuperMix (TransGen Biotech) with random hexamers. Sequencing of cDNA libraries was performed using the DNB-Seq technology at the Beijing Genomics Institute, producing at least 20 million clean reads per sample of paired-end 100-base pair read lengths. RNA-seq data analysis was carried out by the Bioinformatics core facility at Instituto de Biología Molecular y Celular de […]. After quality analysis of raw reads with FastQC (www.bioinformatics.babraham.ac.uk/projects/fastqc/), and quality trimming and adapter removal of raw reads with cutadapt (http://journal.embnet.org/index.php/embnetjournal/article/view/200), clean read pairs longer than 20 nucleotides were mapped to TAIR10 arabidopsis Col-0 reference genome using HISAT2 with default parameters, and nonuniquely mapped pairs were discarded with SAMtools. The number of read counts that uniquely mapped to each arabidopsis gene (Araport11 annotation) was obtained with HTSeq-count. Genes lacking at least 1 TPM ([…]) in the three replicates of at least one of the two conditions were filtered out, and differential expression analysis of the remaining genes was done with DESeq2. […]
# T1 sequence (O49686 whole entry): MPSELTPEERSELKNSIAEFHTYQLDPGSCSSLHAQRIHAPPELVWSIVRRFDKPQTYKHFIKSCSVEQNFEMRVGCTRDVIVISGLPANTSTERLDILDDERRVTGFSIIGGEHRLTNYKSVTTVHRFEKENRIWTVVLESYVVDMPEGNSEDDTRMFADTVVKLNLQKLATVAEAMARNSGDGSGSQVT
# T1 sequence (Q9CAJ0 179-511 partner limits assumed): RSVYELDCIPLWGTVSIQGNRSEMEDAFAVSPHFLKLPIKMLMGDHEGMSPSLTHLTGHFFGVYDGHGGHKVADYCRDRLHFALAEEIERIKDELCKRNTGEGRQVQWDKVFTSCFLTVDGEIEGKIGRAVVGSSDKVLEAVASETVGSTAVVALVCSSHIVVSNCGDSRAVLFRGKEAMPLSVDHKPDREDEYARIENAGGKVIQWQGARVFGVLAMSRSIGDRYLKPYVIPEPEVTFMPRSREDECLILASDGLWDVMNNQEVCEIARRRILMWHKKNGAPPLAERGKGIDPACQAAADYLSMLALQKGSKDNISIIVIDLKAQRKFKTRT
smiles,measurement,setting,value
CCn1c(=O)cc(C)c2cc(CNS(=O)(=O)c3ccccc3)ccc21 [iSB09],inhibition at 1 µM,HAB1 with PYR1,60 to 70%
same,dosage able to inhibit seedling establishment,[1]; WT Col-0,5 µM
same,agonist-induced inhibition of seedling establishment,"[1]; mutants lacking functional PYR1 and PYL1, 10 μM iSB09",insensitive
same,dosage able to inhibit seedling establishment,[1]; plants that express CsPYL1^5m,0.5 µM
same,leaf temperature by thermal imaging,[2],increased leaf temperature
same,bioactivity in tomato (leaf temperature),tomato plants; 2 and 5 days after spraying,active
same,persistence of the effect on leaf temperature after spraying,tomato plants; tomato,up to 5 days
same,increase of regulation of ABA-responsive markers in CsPYL1^5m background relative to WT,ABA-responsive markers,8- to 10 fold
